According to ChEMBL document CHEMBL5113511, “Discovery of Small-Molecule Degraders of the CDK9-Cyclin T1 Complex for Targeting Transcriptional Addiction in Prostate Cancer” (J Med Chem, 2022):
Activity calls are given as the source filed them. The calls are words filed in the database; no cut-off is given here.

What was measured:
Type in all cases: cell-based
[1] = molecular target: T1, CDK9/cyclin T1 (Homo sapiens) (UniProt O60563+P50750); test: Induction of CDK9/Cyclin T1 degradation in human 22Rv1 cells assessed as downregulation of TP53 gene expression at 2 uM incubated for 24 hrs by RNA-Seq based analysis
[2] = molecular target: T1, CDK9/cyclin T1 (Homo sapiens); test: Induction of CDK9/Cyclin T1 degradation in human 22Rv1 cells assessed as downregulation of MYCL gene expression at 2 uM incubated for 24 hrs by RNA-Seq based analysis
[3] = molecular target: T1, CDK9/cyclin T1 (Homo sapiens); test: Induction of CDK9/Cyclin T1 degradation in human 22Rv1 cells assessed as downregulation of NKX3-1 protein expression at 0.3 to 3 uM incubated fo 24 hrs by immunoblot analysis; details: dose 0.3-3 µM
[4] = molecular target: T1, CDK9/cyclin T1 (Homo sapiens); test: Induction of CDK9/Cyclin T1 degradation in human 22Rv1 cells assessed as decrease in cyclin A2 protein expression at 3 uM measured for 36 hrs by DIA-based proteomics analysis
[5] = molecular target: T1, CDK9/cyclin T1 (Homo sapiens); test: Induction of CDK9/Cyclin T1 degradation in human 22Rv1 cells assessed as decrease in cyclin D1 protein expression at 3 uM measured for 36 hrs by DIA-based proteomics analysis
[6] = molecular target: T1, CDK9/cyclin T1 (Homo sapiens); test: Induction of CDK9/Cyclin T1 degradation in human 22Rv1 cells assessed as downregulation of CDK20 gene expression at 2 uM incubated for 24 hrs by RNA-Seq based analysis
[7] = molecular target: T1, CDK9/cyclin T1 (Homo sapiens); test: Induction of CDK9/Cyclin T1 degradation in human 22Rv1 cells assessed as decrease in cyclin C protein expression at 3 uM measured for 36 hrs by DIA-based proteomics analysis

Activity [1]: Active
Activity [2]: Active
Activity [3]: Active
Activity [4]: Active
Activity [5]: Active
Activity [6]: Active
Activity [7]: Active
SMILES: CC(C)[C@@H]1CC[C@@H](C)C[C@H]1OCC(=O)NCCS(=O)(=O)N1CCC(C(=O)Nc2ncc(SCc3ncc(C(C)(C)C)o3)s2)CC1
